Test: Drug release test of solid fluorescein sodium-enclosed PMMA hollow device filled with SF6 gas after transplantation into rabbit
Type: in vivo
Settings: fluorescence intensity meter, after initial burst, from the first week
Procedure: In order to prepare a hollow device made of a polymethyl methacrylate (PMMA) resin as an acrylic resin having low oxygen permeability, outer edge portions of optical parts of two PMMA intraocular lenses were bonded with an adhesive, as a trial model. The cavity volume was calculated to be 11.3 μL. One opening part was made without using an adhesive (arrow) (FIG. 3(A), and FIG. 4). In order to examine the drug release property, a 10% aqueous solution of sodium fluorescein as a low-molecular-weight water-soluble fluorescent dye was filled in the cavity of the PMMA hollow device and air-dried (FIG. 3(B)). The solid fluorescein sodium-enclosed PMMA hollow device was placed in 100% SF6 gas, and its hollow portion was filled with the gas (FIG. 3(B)). After a rabbit was anesthetized by intramuscular injection of Ketalar and Selactar, the pupil of the right eye was dilated with a […] hydrochloride ophthalmic solution (Mydrin-P (registered trademark), Santen Pharmaceutical Co., Ltd.). […] The residual amount of gas was measured from the photograph of the anterior ocular segment and the content of fluorescein sodium in the anterior chamber water sample was measured with a fluorescence intensity meter. […]

- drug release profile (fluorescein sodium content in anterior chamber water): stable sustained release
Structure (SMILES): O=C1OC2(c3ccc(O)cc3Oc3cc(O)ccc32)c2ccccc21 [fluorescein sodium, sodium fluorescein]
